# Source: patent publication EP2246329A1, “4(1H)-pyridinone derivatives and their use as antimalaria agents” (Glaxo Group Limited, priority 2009, dated 2010)
# Structures can show the parent of a compound that is named as a salt.
# System: Plasmodium falciparum
# Test: In vitro anti-malarial activity against Plasmodium falciparum, IC50 assay / [3H]-Hypoxanthine incorporation assay
# Format: cell-based
# Details: Erythrocyte; Plasmodium falciparum strains in parasitized red blood cells, [3H]-hypoxanthine incorporation, 48 hours at 37°C
# Method: The compounds of this invention may be tested in one of several biological assays to determine the concentration of compound which is required to have a given pharmacological effect. In vitro anti-malarial activity against Plasmodium falciparum. IC50 assay / [^3H]-Hypoxanthine assay
# The culture medium comprised RPMI 1640 with 25mM HEPES, sodium bicarbonate and glutamine (GIBCO™ cat. ref.: 52400), supplemented with 10% of pooled human sera AB (Irvine Scientific, cat. ref.: 5009) and HT supplement (0.15 mM hypoxanthine and 24 µM thymidine), (GIBCO™ cat. ref.: 41065). Human sera were decomplemented 30 min. at 56°C, aliquoted and stored frozen at -20°C until use in this culture medium.
# This culture medium ("complete medium") was usually prepared fresh just before use and pre-warmed to 37°C.
# Red blood cells O+ stock suspensions were prepared from whole blood bags coming from incomplete blood donation, provided by the Spanish Red Cross (<25 days after sampling). This "whole blood" was aliquoted and stored at 4°C.
# To prepare red blood cells for the assay, the whole blood was centrifuged and washed 3 times with RPMI without serum. The upper phase, containing white blood cells was removed. The washed red blood cells were kept as a 50 % suspension in complete medium. The prepared cells were stored at 4°C and were employed in the assay at any time up to 4 days after preparation.
# Test compounds were dissolved at 2 mg/ml in 100% DMSO on the day of the assay. If necessary, complete dissolution was achieved by gentle heating (the mixture was heated at a temperature <37°C) and sonication (sonication bath).
# For IC50 determinations, 10 serial 2-fold dilutions were prepared in complete medium in the presence of a constant amount of DMSO. Any obvious signs of insolubility of the stock solutions in 100% DMSO or precipitation when these solutions were diluted in assay media, were recorded.
# Plasmodium falciparum strains were maintained in complete medium at an hematocrit of 5% in continuous culture using a method adapted from that published by Trager and Jensen(1) and Traeger(2).
# The parasitemia was calculated by counting the percentage of parasitized erythrocytes by optical microscopy. Thin films of blood were made every day from each culture flask, fixed with methanol and stained for 10 min. in Giemsa (Merck, cat. ref.: 1.09204) at 10 % in buffered water pH 7.2. The glass slides were observed and counted with an optical microscope (Nikon, Eclipse E200) equipped with a 100 X immersion oil objective.
# The culture was maintained at an hematocrit of 5%, with a daily change of medium and was diluted when parasitemia had reached about 5%.
# [^3H] Hypoxanthine incorporation assay was conducted using a method adapted from Desjardins et al. (3). The assays were performed in 96 wells flat bottom microplates. • 1. Serial dilutions of the test compounds (50µl of a 5X solution / well) were deposited in duplicate. Compounds of the invention were tested in this assay. Chloroquine and Atovaquone were used as control compounds for each assay. • 2. […] [^3H]-Hypoxanthine (Amersham Biosciences, cat. ref.: TRK74) was added extemporaneously to the inoculum suspension at a concentration of 1 µCi/ml (equating to […]). 200 µl of the resulting suspension was distributed into each well (other than the control well H12 described below) leading to a final volume of 250 µl per well, at 2% of hematocrit and 0.5 % of parasitemia / well. • 4. […]
row,IC50 [µg/mL],Compound
1,< 0.125,"Cc1[nH]c(C)c(-c2ccc(-c3ccc(CN4CCC(c5ccc(OC(F)(F)F)cc5)CC4)cc3)cc2)c(=O)c1Cl.Cl [Example 33, 3-Chloro-2,6-dimethyl-5-{4'-[(4-{4-[(trifluoromethyl)oxy]phenyl}-1-piperidinyl)methyl]-4-biphenylyl}-4(1H)-pyridinone hydrochloride]"
2,< 0.125,"Cc1[nH]c(C)c(-c2ccc(C#CCN(C)Cc3ccc(F)cc3F)cc2)c(=O)c1Cl.Cl [Example 40, 3-Chloro-5-(4-{3-[[(2,4-difluorophenyl)methyl](methyl)amino]-1-propyn-1-yl}phenyl)-2,6-dimethyl-4(1H)-pyridinone hydrochloride]"
3,< 0.125,"Cc1[nH]c(C)c(-c2ccc(C#CCN(C)Cc3ccco3)cc2)c(=O)c1Cl.Cl [Example 41, 3-Ch loro-5-(4-{3-[(2-furanylmethyl)(methyl)amino]-1-propyn-1-yl}phenyl)-2,6-dimethyl-4(1H)-pyridinone hydrochloride]"
4,< 0.125,"Cc1ccc(CN(C)CC#Cc2ccc(-c3c(C)[nH]c(C)c(Cl)c3=O)cc2)s1.Cl [Example 42, 3-Chloro-2,6-dimethyl-5-[4-(3-{methyl[(5-methyl-2-thienyl)methyl]amino}-1-propyn-1-yl)phenyl]-4(1H)-pyridinone hydrochloride]"
5,< 0.125,"Cc1[nH]c(C)c(-c2ccc(C#CCN(C)Cc3cccn3C)cc2)c(=O)c1Cl.Cl [Example 44, 3-Chloro-2,6-dimethyl-5-[4-(3-{methyl[(1-methyl-1H-pyrrol-2-yl)methyl]amino}-1-propyn-1-yl)phenyl]-4(1H)-pyridinone hydrochloride]"
6,< 0.125,"Cc1[nH]c(C)c(-c2ccc(C#CCN(C)Cc3ccsc3)cc2)c(=O)c1Cl.Cl [Example 45, 3-Chloro-2,6-dimethyl-5-(4-{3-[methyl(3-thienylmethyl)amino]-1-propyn-1-yl}phenyl)-4(1H)-pyridinone hydrochloride]"
7,< 0.125,"Cc1[nH]c(C)c(-c2ccc(C#CCN(C)CCC(C)(C)C)cc2)c(=O)c1Cl.Cl [Example 48, 3-Chloro-5-(4-{3-[(3,3-dimethylbutyl)(methyl)amino]-1-propyn-1-yl}phenyl)-2 ,6-dimethyl-4(1H)-pyridinone hydrochloride]"
8,< 0.125,"Cc1[nH]c(C)c(-c2ccc(C#CCN(C)Cc3ccc(F)cc3)cc2)c(=O)c1Cl [Example 50, 3-Chloro-5-(4-{3-[[(4-fluorophenyl)methyl](methyl)amino]-1-propyn-1-yl}phenyl)-2,6-dimethyl-4(1H)-pyridinone]"
9,< 0.125,"CC(=O)Oc1c(Cl)c(C)nc(C)c1-c1ccc(-c2ccc(CN3CCC(c4ccc(OC(F)(F)F)cc4)CC3)cc2)cc1.Cl [Example 56, 3-Chloro-2,6-dimethyl-5-{4'-[(4-{4-[(trifluoromethyl)oxy]phenyl}-1-piperidinyl)methyl]-4-biphenylyl}-4-pyridinyl acetate hydrochloride]"
10,< 0.125,"Cc1[nH]c(C)c(-c2ccc(-c3ccc(CN4CCC(C(F)(F)F)CC4)cc3)cc2)c(=O)c1Cl.Cl [Example 57, 3-chloro-2,6-dimethyl-5-(4'-{[4-(trifluoromethyl) -1-piperidinyl]methyl}-4-biphenylyl)-4(1H)-pyridinone hydrochloride]"
11,< 0.125,"Cc1[nH]c(CO)c(-c2ccc(-c3ccc(CN4CCC(c5ccc(OC(F)(F)F)cc5)CC4)cc3)cc2)c(=O)c1Cl [Example 61, 3-chloro-6-(hydroxymethyl)-2-methyl-5-{4'-[(4-{4-[(trifluoromethyl)oxy]phenyl}-1-piperidinyl)methyl]-4-biphenylyl}-4(1H)-pyridinone]"

# The next lines start with the compound.
row,Compound,IC50 [µg/mL]
1,"Cc1[nH]c(C)c(-c2ccc3sc(CN(C)Cc4ccc(OC(F)(F)F)cc4)cc3c2)c(=O)c1Cl.Cl [Example 31, 3-Chloro-2,6-dimethyl-5-(2-{[methyl({4-[(trifluoromethyl)oxy]phenyl}methyl)amino]methyl}-1-benzothien-5-yl)-4(1H)-pyridinone hydrochloride]",< 0.125
2,"Cc1[nH]c(C)c(-c2ccc(C3=CCN(Cc4ccc(OC(F)(F)F)cc4)CC3)cc2)c(=O)c1Cl.Cl [Example 32, 3-Chloro-2,6-dimethyl-5-{4-[1-({4-[(trifluoromethyl)oxy]phenyl}methyl)-1,2,3,6-tetrahydro-4-pyridinyl]phenyl}-4(1H)-pyridinone hydrochloride]",< 0.125
3,"Cc1[nH]c(C)c(-c2ccc(-c3cccc(CN(C)Cc4ccc(OC(F)(F)F)cc4)c3)cc2)c(=O)c1Cl.Cl [Example 34, 3-Chloro-2,6-dimethyl-5-(3'-{[methyl({4-[(trifluoromethyl)oxy]phenyl}methyl)amino]methyl}-4-biphenylyl)-4(1H)-pyridinone hydrochloride]",< 0.125
4,"Cc1[nH]c(C)c(-c2ccc(-c3ccc(CN(C)Cc4ccc(OC(F)(F)F)cc4)cc3)cc2)c(=O)c1Cl.Cl [Example 35, 3-Chloro-2,6-dimethyl-5-(4'-{[methyl({4-[(trifluoromethyl)oxy]phenyl}methyl)amino]methyl}-4-biphenylyl)-4(1H)-pyridinone hydrochloride]",< 0.125
5,"Cc1[nH]c(C)c(-c2ccc(C#CCN(C)Cc3nccs3)cc2)c(=O)c1Cl.Cl [Example 43, 3-Chloro-2,6-dimethyl-5-(4-{3-[methyl(1,3-thiazol-2-ylmethyl)amino]-1-propyn-1-yl}phenyl)-4(1H)-pyridinone hydrochloride]",< 0.125
6,"Cc1[nH]c(C)c(-c2ccc(C#CCN(C)Cc3ccc(Cl)cc3Cl)cc2)c(=O)c1Cl.Cl [Example 46, 3-Chloro-5-(4-{3-[[(2,4-dichlorophenyl)methyl](methyl)amino]-1-propyn-1-yl}phenyl)-2 ,6-dimethyl-4(1H)-pyridinone hydrochloride]",< 0.125
7,"Cc1[nH]c(C)c(-c2ccc(C#CCN(C)Cc3ccc(S(C)(=O)=O)cc3)cc2)c(=O)c1Cl.Cl [Example 47, 3-Chloro-2,6-dimethyl-5-{4-[3-(methyl{[4-(methylsulfonyl)phenyl]methyl}amino)-1-propyn-1-yl]phenyl}-4(1H)-pyridinone hydrochloride]",< 0.125
8,"Cc1[nH]c(C)c(-c2ccc(C#CCN(C)CCC(F)(F)F)cc2)c(=O)c1Cl.Cl [Example 49, 3-Chloro-2,6-dimethyl-5-(4-{3-[methyl(3,3,3-trifluoropropyl)amino]-1-propyn-1-yl}phenyl)-4(1H)-pyridinone hydrochloride]",< 0.125
9,"Cc1[nH]c(C)c(-c2ccc(-c3ccc(CN4CCC(F)(F)C4)cc3)cc2)c(=O)c1Cl.Cl [Example 60, 3-chloro-5-{4'-[(3,3-difluoro-1-pyrrolidinyl)methyl]-4-biphenylyl}-2,6-dimethyl-4(1H)-pyridinone hydrochloride]",< 0.125
10,"Cc1[nH]c(CO)c(-c2ccc(-c3ccc(CN4CCC(c5ccc(OC(F)(F)F)cc5)CC4)cc3)cc2)c(=O)c1Cl.Cl [Example 62, 3-chloro-6-(hydroxymethyl)-2-methyl-5-{4'-[(4-{4-[(trifluoromethyl)oxy]phenyl}-1-piperidinyl)methyl]-4-biphenylyl}-4(1H)-pyridinone hydrochloride]",< 0.125
11,"Cc1[nH]c(CO)c(Cl)c(=O)c1-c1ccc(-c2ccc(CN3CCC(c4ccc(OC(F)(F)F)cc4)CC3)cc2)cc1.Cl [Example 63, 3-chloro-2-(hydroxymethyl)-6-methyl-5-{4'-[(4-{4-[(trifluoromethyl)oxy]phenyl}-1-piperidinyl)methyl]-4-biphenylyl}-4(1H)-pyridinone hydrochloride]",< 0.125

# Same assay, conditions: Plasmodium falciparum, Erythrocyte
row,Compound,IC50 [µg/mL]
1,"Cc1[nH]c(C)c(-c2ccc(C#CCN(Cc3ccc(OC(F)(F)F)cc3)CC3CCCC3)cc2)c(=O)c1Cl [Example 38, 3-Chloro-5-(4-{3-[(cyclopentylmethyl)({4-[(trifluoromethyl)oxy]phenyl}methyl)aminol-1-propyn-1-yl}phenyl)-2,6-dimethy)-4(1H)-pyridinone hydrochloride]",< 0.125
2,"Cc1[nH]c(C)c(-c2ccc(CCCN3CCC(c4ccc(OC(F)(F)F)cc4)CC3)cc2)c(=O)c1Cl [Example 52, 3-Chloro-2,6-dimethyl-5-{4-[3-(4-{4-[(trifluoromethyl)oxy]phenyl}-1-piperidinyl)propyl]phenyl}-4(1H)-pvridinone hydrochloride]",< 0.125
